# Read-outs that look alike come from different tables or passages of the source.
# Experiments:
# [1] = test system: Melissococcus plutonius; assay: MIC determination, stool Firmicute isolates; type: cell-based; conditions: N=1
# [2] = test system: Clostridium butyricum; assay: microbe, parasite or virus in culture; type: cell-based
# [3] = test system: C. difficile toxin A and B; assay: Toxin production by ELISA; type: cell-based; conditions: for reduction of toxin levels (toxin A and B), normalized to controls: sub-inhibitory concentrations, 24 h
# Description: Toxin production was assessed by ELISA (tgcBiomics) according to the manufacturer instructions.
# [4] = test system: C. difficile infection (CDI); assay: Phase 2a CDI clinical trial, clinical outcome and safety; type: in vivo, human
# Description: Phase 2a of this trial was an open label cohort of 10 subjects from study centers in the United States. In this cohort, 10 patients with diarrhea caused by mild or moderate C. difficile diagnosed via toxin EIA+ were treated with ibezapolstat 450 mg orally, twice daily for 10 days. […] Stool was collected during course of therapy and at follow up. Patient fecal samples were evaluated for C. difficile culture and microbiome changes. […] Favorable microbiome changes included overgrowth of Actinobacteria and Firmicutes phylum species while on therapy. These findings support that microbiome effects may be predictive of beneficial patient outcomes including low rates of recurrence. […] Safety evaluations included AE assessment, physical examination, vital signs, clinical laboratory tests (chemistry, hematology, and urinalysis), and electrocardiogramaty endpoints for all subjects were recorded including nature, frequency, and severity of AEs. AEs were assessed at each visit beginning from the time of enrollment and classified according to the Medical Dictionary for Regulatory Activities (MedDRA version 15.0). AE severity (mild, moderate, or severe) and causality (unrelated, possibly related, or probably related to the study medication) were assessed by the investigator at each site. Stool samples were cultured for C. difficile growth on a selective cycloserine-cefoxitin fructose agar (CCFA) at 37° C. under anaerobic conditions for 48 hours. (Gonzales-Luna A J, Carlson T J. Dotson K M, et al. […] Emerg Microbes Infect 2020; 9(1): 341-7). Isolates were determined to be C. difficile based on growth and morphology and confirmed by PCR for C. difficile toxin and tpi genes. C. difficile was strain typed using a PCR-based ribotyping method as previously described (Gonzales-Luna A J, Carlson T J, Dotson K M, et al. […] Emerg Microbes Infect 2020; 9(1):341-7). Minimum inhibitory concentrations (MICs) were determined for ibezapolstat by broth microdilution in 0.1% sodium taurocholate Brain Heart Infusion (BHI) media (Begum K, Basseres E, Miranda J. et al. […] Antimicrob Agents Chemother 2020; 64(8)). An intent-to-treat analysis of patients receiving at least one dose of ibezapolstat was conducted. Descriptive statistics were calculated for efficacy, safety/tolerability, and PK data generated using SAS version 9.4 software (SAS Institute, Inc Cary, NC, USA). Microbiome summary plots and data visualization was prepared using R software version 4.1.1 (R Core Team 2021, Vienna, Austria). (R Core Team (2013). R: A language and environment for statistical computing. R Foundation for Statistical Computing, Vienna, Austria.
# [5] = test system: Longibaculum sp.; assay: MIC determination, stool Firmicute isolates; type: cell-based; conditions: N=1
# [6] = test system: Enterococcus pseudoavium; assay: MIC determination, stool Firmicute isolates; type: cell-based; conditions: N=1
# [7] = test system: C. difficile clinical isolates; conditions: Clostridioides difficile, 24 h, agar dilution
# [8] = test system: Enterococcus faecalis; assay: MIC determination, stool Firmicute isolates; type: cell-based
# [9] = test system: C. difficile biofilms (strains R20291, CD 630); assay: C. difficile in vitro biofilm studies (MIC, MBIC, CFU/mL, Crystal Violet biomass); type: cell-based
# Description: A basic flow chart outlining the experimental procedure used in these studies may be seen in FIG. 14. Briefly, C. difficile laboratory strain R20291 was grown in Brain heart infusion-supplemented (BHIS) medium. […] Biofilm formation was established via anaerobic incubation of the cultures at 37° C. for 24 hrs. Early biofilm formation was established at 4 hrs, whereas late biofilm formation was established at 24 hrs, 48 hrs, and 72 hrs. Following biofilm formation, the BHIS medium was removed and replaced with fresh media comprising no antibiotic (control), ibezapolstat (IBZ), Fidaxomicin (FDX), or metronidazole (MTZ). The cultures were then anaerobically incubated for 24 hrs or subjected to time course tests. Biofilm biomass was measured using Crystal Violet staining. […] Data was measured and recorded using Cytation 3 calibrated to read at A570. Data was analyzed by comparing percent growth of antibiotic treated cultures with controls.
# [10] = test system: gut microbiome; assay: Phase 1 healthy volunteer study, gut microbiome (metagenomics, qPCR); type: in vivo, human; conditions: for Proportion of isolated Firmicutes, Erysipelotrichaceae: baseline 2%; for Proportion of isolated Firmicutes, Other: baseline 4%; for Proportion of isolated Firmicutes, Lachnospiraceae: baseline 26%; for Proportion of isolated Firmicutes, Ruminococcaceae: baseline 68%
# [11] = test system: Lachnoclostridium pacaense; assay: MIC determination, stool Firmicute isolates; type: cell-based; conditions: Clostridium pacaense, N=1
# [12] = healthy volunteers, 450 mg twice daily 10 days, day 3
# [13] = healthy volunteers, 450 mg twice daily 10 days, day 5
# [14] = healthy volunteers, 450 mg twice daily 10 days, day 8
# [15] = healthy volunteers, 450 mg twice daily 10 days, day 10
# [16] = healthy volunteers, 450 mg twice daily 10 days, day 12
compound,measurement,setting,value
"O=c1[nH]c(NCc2ccc(Cl)c(Cl)c2)nc2ncn(CCN3CCOCC3)c12 [Ibezapolstat, 2-((3,4-dichlorobenzyl)amino)-7-(2-morpholinoethyl)-1,7-dihydro-6H-purin-6-one]",MIC50,[1],6.25 µg/mL
same,MIC50,[2],12.5 µg/mL
same,MIC,"[2]; read-out: MIC Max, Clostridium butyricum, N=5",100 µg/mL
same,MIC,"[2]; read-out: MIC Min, Clostridium butyricum, N=5",1.5 µg/mL
same,MIC,[2]; strain C. butyricum 1007,> 100 µg/mL
same,MIC,[2]; strain C. butyricum 1008,1.5 µg/mL
same,total toxin A and B production,"[3]; strain CD 630, 24 hours of treatment",decreases total toxin A and B production in strain CD 630 in a dose-dependent manner
same,"reduction of toxin levels (toxin A and B), normalized to controls",[3]; strain CD 630,55%
same,"reduction of toxin levels (toxin A and B), normalized to controls",[3]; strain R20291,60%
same,adverse event profile,"[4]; 10 CDI patients, 450 mg orally twice daily 10 days",acceptable adverse event profile
same,clinical cure,"[4]; 10 CDI patients, 450 mg orally twice daily 10 days, at day 12",100%
same,sustained clinical cure,"[4]; 10 CDI patients, 450 mg orally twice daily 10 days, at day 38",100%
same,success rate,[4]; Phase 2a CDI clinical trial,100%
same,eradication of colonic C. difficile,[4]; by day three of treatment,complete eradication
same,recurrences of infection,[4]; followed for recurrence for 28±2 days,no recurrences
same,MIC50,[5],50 µg/mL
same,MIC50,[6],100 µg/mL
same,MIC,[7]; C. difficile clinical isolate MT 4802,4 µg/mL
same,MIC,[7]; C. difficile clinical isolate MT 5071,8 µg/mL
same,MIC,[7]; C. difficile clinical isolate MT 5342,4 µg/mL
same,MIC,[7]; C. difficile clinical isolate MT 5364,4 µg/mL
same,MIC,[7]; C. difficile clinical isolate MT 5382,8 µg/mL
same,MIC,[7]; C. difficile clinical isolate MT 5426,8 µg/mL
same,MIC,[7]; C. difficile clinical isolate MT 5493,4 µg/mL
same,MIC,[7]; C. difficile clinical isolate MT 5515,8 µg/mL
same,MIC,[7]; C. difficile clinical isolate MT 5529,4 µg/mL
same,MIC,[7]; C. difficile clinical isolate MT 5536,8 µg/mL
same,MIC,[7]; C. difficile clinical isolate SH 1132,8 µg/mL
same,MIC50,[8],12.5 µg/mL
same,MIC,"[8]; N=5, read-out: MIC Max",50 µg/mL
same,MIC,[8]; read-out: MIC Min,12.5 µg/mL
same,C. diff growth (CFU/mL) and biomass at sub-MIC compared to control,[9]; 0.4× MIC,reduced
same,growth in early biofilms at supra-MIC,"[9]; 40× MIC, after 48 hours of treatment",eradicated growth
same,MBIC,"[9]; C. diff. strain R20291, Minimum Biofilm Inhibitory Concentration",4 µg/mL
same,MIC,"[9]; Clostridioides difficile, C. diff. strain R20291, read-out: MIC",4 µg/mL
same,"amount of C. coccoides (Clostridium cluster XIVa), qPCR","[10]; healthy volunteers, 450 mg twice a day, over 12 days",increased
same,"Proportion of isolated Firmicutes, Streptococcaceae",[10]; [12],27%
same,"Proportion of isolated Firmicutes, Veillonellaceae",[10]; [12],3%
same,"Proportion of isolated Firmicutes, Erysipelotrichaceae",[10]; [12],4%
same,"Proportion of isolated Firmicutes, Other",[10]; [12],6%
same,"Proportion of isolated Firmicutes, Lachnospiraceae",[10]; [12],23%
same,"Proportion of isolated Firmicutes, Ruminococcaceae",[10]; [12],37%
same,"Proportion of isolated Firmicutes, Streptococcaceae",[10]; [13],43%
same,"Proportion of isolated Firmicutes, Erysipelotrichaceae",[10]; [13],7%
same,"Proportion of isolated Firmicutes, Other",[10]; [13],9%
same,"Proportion of isolated Firmicutes, Lachnospiraceae",[10]; [13],21%
same,"Proportion of isolated Firmicutes, Ruminococcaceae",[10]; [13],20%
same,"Proportion of isolated Firmicutes, Lactobacilloae",[10]; [14],12%
same,"Proportion of isolated Firmicutes, Streptococcaceae",[10]; [14],49%
same,"Proportion of isolated Firmicutes, Erysipelotrichaceae",[10]; [14],7%
same,"Proportion of isolated Firmicutes, Other",[10]; [14],9%
same,"Proportion of isolated Firmicutes, Lachnospiraceae",[10]; [14],16%
same,"Proportion of isolated Firmicutes, Ruminococcaceae",[10]; [14],7%
same,"Proportion of isolated Firmicutes, Lactobacilloae",[10]; [15],5%
same,"Proportion of isolated Firmicutes, Streptococcaceae",[10]; [15],41%
same,"Proportion of isolated Firmicutes, Erysipelotrichaceae",[10]; [15],18%
same,"Proportion of isolated Firmicutes, Other",[10]; [15],9%
same,"Proportion of isolated Firmicutes, Lachnospiraceae",[10]; [15],24%
same,"Proportion of isolated Firmicutes, Ruminococcaceae",[10]; [15],3%
same,"Proportion of isolated Firmicutes, Lactobacilloae",[10]; [16],6%
same,"Proportion of isolated Firmicutes, Streptococcaceae",[10]; [16],14%
same,"Proportion of isolated Firmicutes, Erysipelotrichaceae",[10]; [16],25%
same,"Proportion of isolated Firmicutes, Other",[10]; [16],5%
same,"Proportion of isolated Firmicutes, Lachnospiraceae",[10]; [16],47%
same,"Proportion of isolated Firmicutes, Ruminococcaceae",[10]; [16],4%
same,Actinobacteria abundance after starting treatment,"[10]; healthy volunteers, primarily Bifidobacteriales or Coriobacteriales, persisted for the entire dosing period",increased in abundance
same,microbiome profile of treated subjects,"[10]; phase 1 healthy volunteer study, treatment over 10 days, shotgun metagenomic sequencing",larger proportion of Actinobacteria and Firmicute Phylum
same,MIC50,[11],25 µg/mL

# Reference: US20260144796A1, “Compounds and Methods for Improving Health” (Acurx Pharmaceuticals, Inc., priority 2022, published 2026)
